Measurements reported in the NIST ThermoML archive (doi:10.1016/j.fluid.2013.06.013).
± gives the expanded uncertainty stated by the source.

What was measured:
[1] = refractive index (Na D-line) (dimensionless); conditions: 298.15 K; 101.33 kPa; Liquid; Standard Abbe refractometry
[2] = 298.15 K; 101.33 kPa; Liquid; Vibrating tube method
[3] = xn = mol fraction of the nth substance listed; conditions: 298.15 K, 101 kPa, Liquid, Vibrating tube method
[4] = refractive index (Na D-line) (dimensionless); xn = mol fraction of the nth substance listed; conditions: 298.15 K, 101 kPa, Liquid, Standard Abbe refractometry

CCCCCCCCCCCCCC[P+](CCCCCC)(CCCCCC)CCCCCC.N#C[N-]C#N [tetradecyl(trihexyl)phosphonium dicyanamide]
Conditions	mass density [kg/m3]	refractive index
[1]	–	1.48154 ± 0.0012
[2]	899.14 ± 4.4	–

CC(CC(C)(C)C)CP(=O)([O-])CC(C)CC(C)(C)C.CCCCCCCCCCCCCC[P+](CCCCCC)(CCCCCC)CCCCCC
Conditions	mass density [kg/m3]	refractive index
[1]	–	1.47125 ± 0.0012
[2]	886.43 ± 4.3	–

CC(=O)CC(C)=O [2,4-pentanedione] + CC(CC(C)(C)C)CP(=O)([O-])CC(C)CC(C)(C)C.CCCCCCCCCCCCCC[P+](CCCCCC)(CCCCCC)CCCCCC
Conditions	mass density, [3] [kg/m3]	refractive index, [4]
x1 = 0.0517	888.32 ± 3.9	1.4714 ± 0.0012
x1 = 0.0958	889.43 ± 3.5	1.4721 ± 0.0011
x1 = 0.2082	892.48 ± 2.7	1.4731 ± 0.0011
x1 = 0.2986	895.05 ± 2.2	1.4742 ± 0.001
x1 = 0.3991	898 ± 1.6	1.4751 ± 0.0009
x1 = 0.499	901.47 ± 1.1	1.475 ± 0.0009
x1 = 0.6013	905.75 ± 0.77	1.4753 ± 0.0008
x1 = 0.7004	911.47 ± 0.48	1.474 ± 0.0008
x1 = 0.7998	919.31 ± 0.26	1.4716 ± 0.0007
x1 = 0.9	933.94 ± 0.13	1.4659 ± 0.0007
x1 = 0.95	946.89 ± 0.09	1.4602 ± 0.0007

CCCCCCCCCCCCCC[P+](CCCCCC)(CCCCCC)CCCCCC.[Cl-] [trihexyl(tetradecyl)phosphonium chloride]
Conditions	mass density [kg/m3]	refractive index
[1]	–	1.48175 ± 0.0012
[2]	891.82 ± 4.3	–

O [water]
Conditions	refractive index
[1]	1.33249 ± 0.00033

CC(=O)CC(C)=O [2,4-pentanedione]
Conditions	mass density [kg/m3]	refractive index
[1]	–	1.4509 ± 0.00069
[2]	971.07 ± 0.07	–

CCCCCCCCN(CCCCCCCC)CCCCCCCC [trioctylamine]
Conditions	mass density [kg/m3]	refractive index
[1]	–	1.44758 ± 0.00038
[2]	807.46 ± 0.16	–

CCCCCCCCCCCCCC[P+](CCCCCC)(CCCCCC)CCCCCC.[Cl-] [trihexyl(tetradecyl)phosphonium chloride] + CC(=O)CC(C)=O
Conditions	mass density, [3] [kg/m3]	refractive index, [4]
x2 = 0.0586	892.92 ± 0.65	1.4811 ± 0.0005
x2 = 0.0977	893.66 ± 0.6	1.481 ± 0.0005
x2 = 0.1957	895.67 ± 0.5	1.481 ± 0.0005
x2 = 0.2949	898.11 ± 0.4	1.4805 ± 0.0005
x2 = 0.3989	901.25 ± 0.32	1.4799 ± 0.0004
x2 = 0.4985	905.14 ± 0.25	1.478 ± 0.0004
x2 = 0.6092	910.91 ± 0.2	1.4759 ± 0.0004
x2 = 0.7096	918.02 ± 0.16	1.4741 ± 0.0004
x2 = 0.8008	926.85 ± 0.14	1.4705 ± 0.0004
x2 = 0.9036	942.76 ± 0.12	1.4633 ± 0.0004
x2 = 0.9508	953.8 ± 0.12	1.458 ± 0.0004

CCCCn1cc[n+](C)c1.F[P-](F)(F)(F)(F)F [1-butyl-3-methylimidazolium hexafluorophosphate]
Conditions	mass density [kg/m3]	refractive index
[1]	–	1.40926 ± 0.0012
[2]	1366.95 ± 10	–

CCCC[n+]1ccn(C)c1.O=S(=O)([N-]S(=O)(=O)C(F)(F)F)C(F)(F)F
Conditions	mass density [kg/m3]	refractive index
[1]	–	1.42689 ± 0.0012
[2]	1436.16 ± 11	–

CCCCCCCC[n+]1ccn(C)c1.F[B-](F)(F)F [1-methyl-3-octylimidazolium tetrafluoroborate]
Conditions	mass density [kg/m3]	refractive index
[1]	–	1.43306 ± 0.0012
[2]	1101.99 ± 6.6	–

CCCCCCn1cc[n+](C)c1.F[B-](F)(F)F [1-hexyl-3-methylimidazolium tetrafluoroborate]
Conditions	mass density [kg/m3]	refractive index
[1]	–	1.42844 ± 0.0012
[2]	1144.46 ± 7.1	–

CCn1cc[n+](C)c1.O=S(=O)([N-]S(=O)(=O)C(F)(F)F)C(F)(F)F
Conditions	mass density [kg/m3]	refractive index
[1]	–	1.42293 ± 0.0012
[2]	1518.86 ± 2.1	–

CCCCCCCCCCCCCC[P+](CCCCCC)(CCCCCC)CCCCCC.N#C[N-]C#N [tetradecyl(trihexyl)phosphonium dicyanamide] + CC(=O)CC(C)=O
Conditions	mass density, [3] [kg/m3]	refractive index, [4]
x2 = 0.0599	899.94 ± 0.65	1.481 ± 0.0005
x2 = 0.113	900.73 ± 0.59	1.4808 ± 0.0005
x2 = 0.2	902.2 ± 0.5	1.4801 ± 0.0005
x2 = 0.3143	904.54 ± 0.39	1.4795 ± 0.0005
x2 = 0.4094	906.97 ± 0.31	1.4785 ± 0.0004
x2 = 0.5016	909.92 ± 0.25	1.4773 ± 0.0004
x2 = 0.5967	913.83 ± 0.2	1.4757 ± 0.0004
x2 = 0.7002	919.76 ± 0.16	1.4732 ± 0.0004
x2 = 0.8004	928.35 ± 0.14	1.47 ± 0.0004
x2 = 0.9	942.61 ± 0.12	1.463 ± 0.0004
x2 = 0.9496	953.89 ± 0.12	1.4578 ± 0.0004
